Data as given in US9340590B2 (priority 2011, dated 2016).
Like-named read-outs stand apart in the source and are kept apart here. Positions of bridges follow the written chain, without caps; N, C: chain ends. Non-standard residues stand in square brackets, D forms with d. Residues, ends and D or L forms follow the SMILES beside them. *: point of attachment. Biotin = O=C1N[C@H]2[C@H](CS[C@H]2CCCCC(=O)*)N1; Abu = CC[C@H](N)C(=O)O; Ahx = NCCCCCC(=O)O

Tests used:
Assay in all cases: cell-based
hNav1.7 [1] = target: T1, hNav1.7 (Homo sapiens, UniProt Q15858)
T1 sequence (Q15858 whole entry, looked up): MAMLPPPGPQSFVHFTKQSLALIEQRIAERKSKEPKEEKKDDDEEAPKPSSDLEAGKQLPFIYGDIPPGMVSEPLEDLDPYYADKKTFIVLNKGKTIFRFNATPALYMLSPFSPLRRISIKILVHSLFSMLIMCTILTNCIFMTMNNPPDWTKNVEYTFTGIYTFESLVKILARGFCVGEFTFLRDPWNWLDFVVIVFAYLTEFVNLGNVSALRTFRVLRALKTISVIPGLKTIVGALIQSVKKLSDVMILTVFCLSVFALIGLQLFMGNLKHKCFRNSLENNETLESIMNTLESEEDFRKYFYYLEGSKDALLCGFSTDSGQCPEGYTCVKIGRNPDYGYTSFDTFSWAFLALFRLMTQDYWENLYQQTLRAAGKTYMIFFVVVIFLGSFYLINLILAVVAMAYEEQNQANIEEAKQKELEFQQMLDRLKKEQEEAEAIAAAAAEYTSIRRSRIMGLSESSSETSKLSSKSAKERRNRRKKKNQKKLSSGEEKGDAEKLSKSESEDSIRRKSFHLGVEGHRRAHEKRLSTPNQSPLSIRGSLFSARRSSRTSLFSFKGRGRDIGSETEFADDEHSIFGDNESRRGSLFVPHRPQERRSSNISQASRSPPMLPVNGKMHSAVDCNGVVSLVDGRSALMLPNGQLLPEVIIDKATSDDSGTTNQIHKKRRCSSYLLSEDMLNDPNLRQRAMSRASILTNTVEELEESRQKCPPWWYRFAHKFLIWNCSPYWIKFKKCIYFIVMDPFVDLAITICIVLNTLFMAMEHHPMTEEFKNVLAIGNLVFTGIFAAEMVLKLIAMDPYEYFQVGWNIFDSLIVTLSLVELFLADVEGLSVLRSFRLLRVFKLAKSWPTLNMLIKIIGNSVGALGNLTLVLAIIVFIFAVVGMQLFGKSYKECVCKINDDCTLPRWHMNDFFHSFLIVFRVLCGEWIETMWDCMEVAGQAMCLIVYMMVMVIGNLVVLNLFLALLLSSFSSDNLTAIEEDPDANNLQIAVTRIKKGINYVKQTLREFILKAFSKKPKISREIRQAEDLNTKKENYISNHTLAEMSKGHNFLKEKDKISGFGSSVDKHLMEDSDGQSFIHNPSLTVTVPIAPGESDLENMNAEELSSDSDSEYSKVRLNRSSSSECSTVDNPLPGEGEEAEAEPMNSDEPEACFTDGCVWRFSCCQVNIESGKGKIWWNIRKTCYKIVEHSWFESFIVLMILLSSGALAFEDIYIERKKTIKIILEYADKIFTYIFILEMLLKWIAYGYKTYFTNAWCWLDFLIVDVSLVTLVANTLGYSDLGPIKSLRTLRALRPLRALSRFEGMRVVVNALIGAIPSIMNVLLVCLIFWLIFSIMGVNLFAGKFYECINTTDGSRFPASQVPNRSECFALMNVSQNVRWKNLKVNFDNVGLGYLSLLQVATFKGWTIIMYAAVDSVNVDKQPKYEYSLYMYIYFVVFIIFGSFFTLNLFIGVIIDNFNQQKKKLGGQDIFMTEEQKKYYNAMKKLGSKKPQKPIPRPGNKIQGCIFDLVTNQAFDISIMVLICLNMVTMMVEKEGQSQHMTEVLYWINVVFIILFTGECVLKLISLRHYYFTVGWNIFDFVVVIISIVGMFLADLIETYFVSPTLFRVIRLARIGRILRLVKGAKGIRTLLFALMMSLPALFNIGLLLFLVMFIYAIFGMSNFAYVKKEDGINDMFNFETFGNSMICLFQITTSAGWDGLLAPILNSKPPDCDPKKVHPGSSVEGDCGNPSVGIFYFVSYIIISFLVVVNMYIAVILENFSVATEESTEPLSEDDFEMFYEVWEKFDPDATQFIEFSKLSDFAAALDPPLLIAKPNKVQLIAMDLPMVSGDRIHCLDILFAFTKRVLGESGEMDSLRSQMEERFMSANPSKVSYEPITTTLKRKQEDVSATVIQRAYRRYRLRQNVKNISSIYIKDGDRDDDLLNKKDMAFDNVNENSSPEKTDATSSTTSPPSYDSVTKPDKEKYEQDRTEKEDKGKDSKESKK

hNav1.7 [2] = target: T1, hNav1.7; assay type: cell-based
hNav1.5 = hNav1.5 (Homo sapiens, UniProt Q14524); conditions: IonWorks Quattro, read-out: IWQ Use Nav1.5
hNav1.3 = hNav1.3 (Homo sapiens, UniProt Q9NY46); conditions: IonWorks Quattro, read-out: IWQ Use Nav1.3
Sequence of hNav1.3 (Q9NY46 whole entry, looked up): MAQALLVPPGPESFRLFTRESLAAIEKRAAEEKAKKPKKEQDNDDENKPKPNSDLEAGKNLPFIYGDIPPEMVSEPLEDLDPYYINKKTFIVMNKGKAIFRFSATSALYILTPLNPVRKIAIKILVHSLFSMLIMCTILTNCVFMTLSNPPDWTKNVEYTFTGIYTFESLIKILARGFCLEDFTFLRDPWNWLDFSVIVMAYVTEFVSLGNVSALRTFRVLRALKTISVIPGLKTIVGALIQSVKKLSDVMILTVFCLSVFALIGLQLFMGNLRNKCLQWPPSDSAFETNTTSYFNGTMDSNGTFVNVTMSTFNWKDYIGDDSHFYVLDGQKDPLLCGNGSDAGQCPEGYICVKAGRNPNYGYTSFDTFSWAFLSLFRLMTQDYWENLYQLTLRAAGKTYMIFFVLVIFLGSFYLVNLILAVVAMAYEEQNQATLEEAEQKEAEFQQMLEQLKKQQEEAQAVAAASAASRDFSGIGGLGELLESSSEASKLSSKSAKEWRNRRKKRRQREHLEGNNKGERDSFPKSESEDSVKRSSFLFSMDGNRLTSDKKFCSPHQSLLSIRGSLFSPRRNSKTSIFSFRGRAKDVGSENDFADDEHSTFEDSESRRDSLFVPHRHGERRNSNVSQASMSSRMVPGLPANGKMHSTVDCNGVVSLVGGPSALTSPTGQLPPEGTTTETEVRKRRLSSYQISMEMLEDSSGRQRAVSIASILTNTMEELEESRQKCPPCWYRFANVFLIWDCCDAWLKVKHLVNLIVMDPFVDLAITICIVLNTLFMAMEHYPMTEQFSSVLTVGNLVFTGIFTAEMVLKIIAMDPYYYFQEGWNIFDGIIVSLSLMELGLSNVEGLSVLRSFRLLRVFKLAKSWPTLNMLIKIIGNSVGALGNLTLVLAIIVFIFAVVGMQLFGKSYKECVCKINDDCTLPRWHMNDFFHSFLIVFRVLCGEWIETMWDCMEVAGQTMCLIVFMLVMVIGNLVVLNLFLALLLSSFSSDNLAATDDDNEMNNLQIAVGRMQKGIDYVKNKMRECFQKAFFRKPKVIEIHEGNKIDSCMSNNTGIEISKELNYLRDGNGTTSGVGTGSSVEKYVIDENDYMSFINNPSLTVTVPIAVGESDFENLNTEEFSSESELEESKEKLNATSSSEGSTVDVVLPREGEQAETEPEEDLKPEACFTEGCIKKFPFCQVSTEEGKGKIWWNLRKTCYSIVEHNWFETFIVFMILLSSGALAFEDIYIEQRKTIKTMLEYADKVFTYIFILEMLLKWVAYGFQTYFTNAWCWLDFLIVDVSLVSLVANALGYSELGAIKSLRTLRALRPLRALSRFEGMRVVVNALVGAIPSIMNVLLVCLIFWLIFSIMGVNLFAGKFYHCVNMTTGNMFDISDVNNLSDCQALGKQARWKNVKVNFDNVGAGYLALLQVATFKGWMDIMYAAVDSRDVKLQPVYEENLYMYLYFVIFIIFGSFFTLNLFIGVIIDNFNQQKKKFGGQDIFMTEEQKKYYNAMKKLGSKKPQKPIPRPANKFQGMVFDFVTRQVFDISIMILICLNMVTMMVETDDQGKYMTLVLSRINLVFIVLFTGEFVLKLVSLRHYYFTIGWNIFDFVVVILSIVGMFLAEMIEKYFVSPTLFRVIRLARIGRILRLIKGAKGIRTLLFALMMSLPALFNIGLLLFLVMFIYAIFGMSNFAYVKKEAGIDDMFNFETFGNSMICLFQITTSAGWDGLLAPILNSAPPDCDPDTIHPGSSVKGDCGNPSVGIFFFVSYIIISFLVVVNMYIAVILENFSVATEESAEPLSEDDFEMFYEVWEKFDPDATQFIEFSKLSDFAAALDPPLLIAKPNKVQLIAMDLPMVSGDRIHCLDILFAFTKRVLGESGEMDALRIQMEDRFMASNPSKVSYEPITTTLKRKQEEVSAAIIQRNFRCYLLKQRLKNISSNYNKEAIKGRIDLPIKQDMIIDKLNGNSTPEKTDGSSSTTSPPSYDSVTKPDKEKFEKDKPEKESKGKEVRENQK

[3] = IonWorks Quattro, use-dependent block, hNav1.7, read-out: IWQ Use Nav1.7

CC[C@@H]1NC(=O)CNC(=O)[C@H](CC(C)C)NC(=O)[C@@H](NC(=O)[C@H](CC(=O)O)NC(=O)CCCCCNC(=O)CCCC[C@@H]2SC[C@@H]3NC(=O)N[C@@H]32)CSSC[C@@H]2NC(=O)[C@@H]3CSSC[C@@H](C(=O)N[C@@H](CCCCN)C(=O)N[C@@H](Cc4ccc(O)cc4)C(=O)N[C@H](C(=O)N[C@@H](Cc4ccccc4)C(N)=O)C(C)C)NC(=O)[C@H](Cc4c[nH]c5ccccc45)NC(=O)[C@H](CCCNC(=N)N)NC(=O)[C@H](Cc4c[nH]cn4)NC(=O)[C@H]([C@@H](C)O)NC(=O)[C@H](CCCNC(=N)N)NC(=O)[C@H](CO)NC(=O)[C@H](CSSC[C@H](NC(=O)[C@H](CCCCN)NC(=O)[C@H](CCCNC(=N)N)NC(=O)[C@H](CC(C)C)NC1=O)C(=O)N[C@@H]([C@@H](C)CC)C(=O)N1CCC[C@H]1C(=O)N[C@@H](CC(=O)O)C(=O)N[C@@H](CC)C(=O)N[C@@H](CC(=O)O)C(=O)N[C@@H](CCCCN)C(=O)N3)NC(=O)[C@H](C(C)C)NC(=O)[C@H](CC(C)C)NC(=O)[C@H](CC(N)=O)NC(=O)[C@@H]1CCCN1C(=O)[C@H](CCCNC(=N)N)NC2=O ({Biotin-Ahx}-DCLG[Abu]LRKCIPD[Abu]DKCCRPNLVCSRTHRWCKYVF-NH2; disulfide 2-17, 9-23, 16-30)
Nav1.4/Nav1.7 Use (hNav1.7 [1]): 2482
Nav1.5/Nav1.7 Use (hNav1.7 [1]): >909

CC[C@H](C)[C@@H]1NC(=O)[C@@H]2CSSC[C@@H]3NC(=O)[C@H](C(C)C)NC(=O)[C@H](CC(C)C)NC(=O)[C@H](CC(N)=O)NC(=O)[C@@H]4CCCN4C(=O)[C@H](CCCNC(=N)N)NC(=O)[C@H](CSSC[C@H](NC(=O)[C@@H](N)CC(=O)O)C(=O)N[C@@H](CC(C)C)C(=O)NCC(=O)N[C@@H](C)C(=O)N[C@@H](CC(C)C)C(=O)N[C@@H](CCCNC(=N)N)C(=O)N[C@@H](CCCCN)C(=O)N2)NC(=O)[C@H](CSSC[C@@H](C(=O)N[C@@H](CCCCN)C(=O)N[C@@H](Cc2ccc(O)cc2)C(=O)N[C@H](C(=O)N[C@@H](Cc2ccccc2)C(N)=O)C(C)C)NC(=O)[C@H](Cc2c[nH]c4ccccc24)NC(=O)[C@H](CCC(=O)O)NC(=O)[C@H](Cc2c[nH]cn2)NC(=O)[C@H]([C@@H](C)O)NC(=O)[C@H](CCCNC(=N)N)NC(=O)[C@H](CO)NC3=O)NC(=O)[C@H](CCCCN)NC(=O)[C@H](CC(=O)O)NC(=O)[C@H](CC(N)=O)NC(=O)[C@H](CC(=O)O)NC(=O)[C@@H]2CCCN2C1=O [compound 728]
IC50 (hNav1.7 [2]; [3]): 1600 nM
IC50 (hNav1.5; use-dependent block, hNav1.5): 43000 nM
IC50 (hNav1.3; use-dependent block, hNav1.3): 6600 nM

CC[C@H](C)[C@@H]1NC(=O)[C@@H]2CSSC[C@@H]3NC(=O)[C@H](C(C)C)NC(=O)[C@H](CC(C)C)NC(=O)[C@H](CC(N)=O)NC(=O)[C@@H]4CCCN4C(=O)[C@H](CCCNC(=N)N)NC(=O)[C@H](CSSC[C@H](NC(=O)[C@@H](N)CC(=O)O)C(=O)N[C@@H](CC(C)C)C(=O)NCC(=O)N[C@@H](Cc4ccccc4)C(=O)N[C@@H](Cc4c[nH]c5ccccc45)C(=O)N[C@@H](CCCNC(=N)N)C(=O)N[C@@H](CCCCN)C(=O)N2)NC(=O)[C@H](CSSC[C@@H](C(=O)N[C@@H](CCCCN)C(=O)N[C@@H](Cc2ccc(O)cc2)C(=O)N[C@H](C(=O)N[C@@H](Cc2ccccc2)C(N)=O)C(C)C)NC(=O)[C@H](Cc2c[nH]c4ccccc24)NC(=O)[C@H](CCCCN)NC(=O)[C@H](Cc2c[nH]cn2)NC(=O)[C@H](CC(C)C)NC(=O)[C@H](CCCNC(=N)N)NC(=O)[C@H](CO)NC3=O)NC(=O)[C@H](CCCCN)NC(=O)[C@H](CC(=O)O)NC(=O)[C@H](CC(N)=O)NC(=O)[C@H](CC(=O)O)NC(=O)[C@@H]2CCCN2C1=O [compound 456] (H-DCLGFWRKCIPDNDKCCRPNLVCSRLHKWCKYVF-NH2; disulfide 2-17, 9-23, 16-30)
IC50 (hNav1.7 [2]; [3]): 30 nM
IC50 (hNav1.5; use-dependent block, hNav1.5): > 5000 nM
IC50 (hNav1.3; use-dependent block, hNav1.3): 10 nM

CC[C@H](C)[C@@H]1NC(=O)[C@@H]2CSSC[C@@H]3NC(=O)[C@H](C(C)C)NC(=O)[C@H](CC(C)C)NC(=O)[C@H](CC(N)=O)NC(=O)[C@@H]4CCCN4C(=O)[C@H](CCCNC(=N)N)NC(=O)[C@H](CSSC[C@H](NC(=O)[C@@H](N)CC(=O)O)C(=O)N[C@@H](CC(C)C)C(=O)NCC(=O)N[C@@H](Cc4ccccc4)C(=O)N[C@@H](CCSC)C(=O)N[C@@H](CCCNC(=N)N)C(=O)N[C@@H](CCCCN)C(=O)N2)NC(=O)[C@H](CSSC[C@@H](C(=O)N[C@@H](CCCCN)C(=O)N[C@@H](Cc2ccc(O)cc2)C(=O)N[C@H](C(=O)N[C@@H](Cc2ccccc2)C(N)=O)C(C)C)NC(=O)[C@H](Cc2c[nH]c4ccccc24)NC(=O)[C@H](CCCCN)NC(=O)[C@H](Cc2c[nH]cn2)NC(=O)[C@H]([C@@H](C)O)NC(=O)[C@H](CCCNC(=NC)NC)NC(=O)[C@H](CO)NC3=O)NC(=O)[C@H](CCCCN)NC(=O)[C@H](CC(=O)O)NC(=O)[C@H](CC(N)=O)NC(=O)[C@H](CC(=O)O)NC(=O)[C@@H]2CCCN2C1=O [compound 336]
IC50 (hNav1.7 [2]): 140 nM
IC50 (hNav1.5; Use): 9220 nM
IC50 (hNav1.3; Use): 110 nM

CC[C@H](C)[C@@H]1NC(=O)[C@@H]2CSSC[C@@H]3NC(=O)[C@H](C(C)C)NC(=O)[C@H](CC(C)C)NC(=O)[C@H](CC(N)=O)NC(=O)[C@@H]4CCCN4C(=O)[C@H](CCCNC(=N)N)NC(=O)[C@H](CSSC[C@H](NC(=O)[C@@H](N)CC(=O)O)C(=O)N[C@@H](CC(C)C)C(=O)NCC(=O)N[C@@H](C)C(=O)N[C@@H](CCSC)C(=O)N[C@@H](CCCNC(=N)N)C(=O)N[C@@H](CCCCN)C(=O)N2)NC(=O)[C@H](CSSC[C@@H](C(=O)N[C@@H](CCCCN)C(=O)N[C@@H](Cc2ccc(O)cc2)C(=O)N[C@H](C(=O)N[C@@H](Cc2ccccc2)C(N)=O)C(C)C)NC(=O)[C@H](Cc2c[nH]c4ccccc24)NC(=O)[C@H](Cc2ccccc2)NC(=O)[C@H](Cc2c[nH]cn2)NC(=O)[C@H]([C@@H](C)O)NC(=O)[C@H](CCCNC(=N)N)NC(=O)[C@H](CO)NC3=O)NC(=O)[C@H](CCCCN)NC(=O)[C@H](CC(=O)O)NC(=O)[C@H](CC(N)=O)NC(=O)[C@H](CC(=O)O)NC(=O)[C@@H]2CCCN2C1=O [compound 764] (H-DCLGAMRKCIPDNDKCCRPNLVCSRTHFWCKYVF-NH2; disulfide 2-17, 9-23, 16-30)
IC50 (hNav1.7 [2]; [3]): 4100 nM
IC50 (hNav1.5; use-dependent block, hNav1.5): 41400 nM
IC50 (hNav1.3; use-dependent block, hNav1.3): > 5000 nM

CC[C@H](C)[C@@H]1NC(=O)[C@@H]2CSSC[C@@H]3NC(=O)[C@H](C(C)C)NC(=O)[C@H](CC(C)C)NC(=O)[C@H](CC(N)=O)NC(=O)[C@@H]4CCCN4C(=O)[C@H](CCCNC(=N)N)NC(=O)[C@H](CSSC[C@H](NC(=O)[C@@H](N)CC(=O)O)C(=O)N[C@@H](CC(C)C)C(=O)NCC(=O)N[C@@H](C)C(=O)N[C@@H](CCSC)C(=O)N[C@@H](CCCNC(=N)N)C(=O)N[C@@H](CCCCN)C(=O)N2)NC(=O)[C@H](CSSC[C@@H](C(=O)N[C@@H](CCCCN)C(=O)N[C@@H](Cc2ccc(O)cc2)C(=O)N[C@H](C(=O)N[C@@H](Cc2ccccc2)C(N)=O)C(C)C)NC(=O)[C@H](Cc2c[nH]c4ccccc24)NC(=O)[C@H](CCCCN)NC(=O)[C@H](Cc2c[nH]cn2)NC(=O)[C@H]([C@@H](C)O)NC(=O)[C@H](CCCNC(=N)N)NC(=O)[C@H](CO)NC3=O)NC(=O)[C@H](CCCCN)NC(=O)[C@H](CC(=O)O)NC(=O)[C@H](CC(N)=O)NC(=O)[C@H](Cc2c[nH]c3ccccc23)NC(=O)[C@@H]2CCCN2C1=O [compound 423] (H-DCLGAMRKCIPWNDKCCRPNLVCSRTHKWCKYVF-NH2; disulfide 2-17, 9-23, 16-30)
IC50 (hNav1.7 [2]; [3]): 430 nM
IC50 (hNav1.5; use-dependent block, hNav1.5): > 5000 nM
IC50 (hNav1.3; use-dependent block, hNav1.3): 1090 nM

CC[C@H](C)[C@@H]1NC(=O)[C@@H]2CSSC[C@@H]3NC(=O)[C@H](CCSC)NC(=O)[C@H](CC(C)C)NC(=O)[C@H](CC(N)=O)NC(=O)[C@@H]4CCCN4C(=O)[C@H](CCCNC(=N)N)NC(=O)[C@H](CSSC[C@H](NC(=O)[C@@H](N)CC(=O)O)C(=O)N[C@@H](CC(C)C)C(=O)NCC(=O)N[C@@H](Cc4ccccc4)C(=O)N[C@@H](CCSC)C(=O)N[C@@H](CCCNC(=N)N)C(=O)N[C@@H](CCCCN)C(=O)N2)NC(=O)[C@H](CSSC[C@@H](C(=O)N[C@@H](CCCCN)C(=O)N[C@@H](Cc2ccc(O)cc2)C(=O)N[C@H](C(=O)N[C@@H](Cc2ccccc2)C(N)=O)C(C)C)NC(=O)[C@H](Cc2c[nH]c4ccccc24)NC(=O)[C@H](CCCCN)NC(=O)[C@H](Cc2c[nH]cn2)NC(=O)[C@H]([C@@H](C)O)NC(=O)[C@H](CCCNC(=N)N)NC(=O)[C@H](CO)NC3=O)NC(=O)[C@H](CCCCN)NC(=O)[C@H](CC(=O)O)NC(=O)[C@H](CC(N)=O)NC(=O)[C@H](CC(=O)O)NC(=O)[C@@H]2CCCN2C1=O [compound 332] (H-DCLGFMRKCIPDNDKCCRPNLMCSRTHKWCKYVF-NH2; disulfide 2-17, 9-23, 16-30)
IC50 (hNav1.7 [2]; IonWorks Quattro, Use, read-out: IWQ Use Nav1.7): 90 nM
IC50 (hNav1.5; Use): 4610 nM
IC50 (hNav1.3; Use): 80 nM

CC[C@H](C)[C@@H]1NC(=O)[C@@H]2CSSC[C@@H]3NC(=O)[C@H](C(C)C)NC(=O)[C@H](CC(C)C)NC(=O)[C@H](CC(N)=O)NC(=O)[C@@H]4CCCN4C(=O)[C@H](CCCNC(=N)N)NC(=O)[C@H](CSSC[C@H](NC(=O)[C@@H](N)CC(=O)O)C(=O)N[C@@H](CC(C)C)C(=O)NCC(=O)N[C@@H](Cc4ccccc4)C(=O)N[C@@H](CCSC)C(=O)N[C@@H](CCCNC(=N)N)C(=O)N[C@@H](CCCCN)C(=O)N2)NC(=O)[C@H](CSSC[C@@H](C(=O)N[C@@H](CCCCN)C(=O)N[C@@H](Cc2ccc(O)cc2)C(=O)N[C@H](C(=O)N[C@@H](Cc2ccccc2)C(N)=O)C(C)C)NC(=O)[C@H](Cc2c[nH]c4ccccc24)NC(=O)[C@H](CCCCN)NC(=O)[C@H](Cc2c[nH]cn2)NC(=O)[C@H](CC(=O)O)NC(=O)[C@H](CCCNC(=N)N)NC(=O)[C@H](CO)NC3=O)NC(=O)[C@H](CCCCN)NC(=O)[C@H](CC(=O)O)NC(=O)[C@H](CC(N)=O)NC(=O)[C@H](CC(=O)O)NC(=O)[C@@H]2CCCN2C1=O [compound 347] (H-DCLGFMRKCIPDNDKCCRPNLVCSRDHKWCKYVF-NH2; disulfide 2-17, 9-23, 16-30)
IC50 (hNav1.7 [2]; Table 22, IonWorks Quattro, use, […], read-out: IWQ Use Nav1.7): 960 nM
IC50 (hNav1.5; Table 22, use, […]): 14100 nM
IC50 (hNav1.3; Table 22, use, […]): 640 nM
